Structures are written as SMILES.

The source of these data is patent US20250090493A1, “THERAPEUTIC COMPOSITION DELIVERY DEVICE” (Helios Cardio Inc., priority 2021, published 2025).

Series [1] is described as follows: Amiodarone quantification in tissues by LC/MS after pericardial repair with amiodarone-soaked EBM patch, or IV amiodarone control, ovine model. It counts as in vivo. The note with it: sheep. The text has this: Specifically, EBM under the tradename CardiaMend™ was used. The device was approximately 1 mm thick (range 0.75-1.54 mm). An ovine model was used for a pericardial repair procedure. […] The EBM patch was then inserted through a hole cut through the pericardium via a mini-thoracotomy approach and secured with sutures at the margins of the pericardial defect. Following closure of the superficial muscle and skin, the animals were recovered, and housed until sacrifice at 3 days, 7 days, and 28 days. […] Following sacrifice, the repair site was explored, and the implant and heart were grossly evaluated for signs of inflammation, scarring, or fibrosis. Gross images were acquired.

Experiment in series [2]: as above
It counts as in vivo. The note with it: sheep, 1000 mg/day, Maximum IV delivery-positive control Average, 1,000 mg/day via IV for 14 days.

For `CCCCc1oc2ccccc2c1C(=O)c1cc(I)c(OCCN(CC)CC)c(I)c1` [Amiodarone, amiodarone], the “Amiodarone concentration, Myocardium, Day 3 Average” value in series [1] (EBM 7 cm by 10 cm soaked in 6 mL of 50 mg/mL amiodarone hydrochloride, pericardial patch, myocardium, day 3) was 63.50 µg/g. In series [1] (EBM drug delivery, local single dose, left atrium, day 3-7), the “Amiodarone concentration, Left Atrium, EBM drug delivery Day 3-7 Average” value is 96 µg/g. Further, the “Amiodarone concentration, Liver, EBM drug delivery Day 3-7 Average” value in series [1] (EBM drug delivery, local single dose, liver, day 3-7) is 1 µg/g. Also, the “Amiodarone concentration, Lung, EBM drug delivery Day 3-7 Average” value in series [1] (EBM drug delivery, local single dose, lung, day 3-7) worked out at 4 µg/g. Besides, in series [1] (EBM drug delivery, local single dose, right atrium, day 3-7), the “Amiodarone concentration, Right Atrium, EBM drug delivery Day 3-7 Average” value is 83 µg/g. Also, in series [1] (EBM drug delivery, local single dose, ventricles, day 3-7), the “Amiodarone concentration, Ventricles, EBM drug delivery Day 3-7 Average” value came to 14 µg/g. The “Amiodarone concentration, Liver, Day 28 Average” value in series [1] (amiodarone-soaked EBM pericardial patch, liver, day 28) is listed as “below the limit of detection”. Besides, the concentration at 14 day in series [2] (left atrium) is 19000 ng/g; in series [2] (liver) it was 8000 ng/g; in series [2] (lung), 27000 ng/g; in series [2] (right atrium), 33000 ng/g; in series [2] (ventricles), 9000 ng/g.
